Data from publication PMC4387075 (Neuropharmacology, 2015).
Entries after “also recorded” stand apart in the source; their conditions may differ. Where two headings read alike, the source gives them in different places.

Legend:
[1] = tested on: cerebellar granule cells; test: Cell viability; settings: for IC50: read-out: IC50 for inhibition of glutamate neuroprotection, 1 mM glutamate in K5; for effect of agonist on viability of granule cells in K5: K5, 16 hours, MTT; for maximum effect on granule cell viability: percent of viability in K25 cultures, K5 media, 16 hours; for effect of antagonist on NMDA-induced increase in granule cell viability: 1 mM NMDA in K5, MK801 1 μM, JNJ16259685 300 μM
[2] = molecular target: mGlu1 receptors (Rattus norvegicus, UniProt P23385); test: PI hydrolysis; assay type: cell-based; settings: for PI hydrolysis Emax, % glu: efficacy as percentage of glutamate efficacy, mean +/- 95% confidence interval; for agonist bias between PI hydrolysis and neuroprotection: from Emax values of both responses (Figure 7); for effect of antagonist on PI hydrolysis stimulated by quisqualate, DHPG and ACPD: agonists 100 μM, JNJ16259685 300 μM, CPCCOEt 200 μM, MPEP 10 μM
[3] = tested on: mGlu1 receptor-expressing CHO cells; settings: ref Emery et al., 2012, cited from earlier work; for ERK phosphorylation or protection: transfected CHO cells; for protection from serum starvation: mGlu1 receptor-expressing CHO cells
[4] = tested on: mGlu1 receptor; settings: mGlu1 receptor-expressing CHO cells; ref Emery et al., 2012; cited from earlier work
[5] = read-out: PI hydrolysis EC50, mean (95% confidence interval)

Chain of mGlu1 receptors (P23385 19-1199): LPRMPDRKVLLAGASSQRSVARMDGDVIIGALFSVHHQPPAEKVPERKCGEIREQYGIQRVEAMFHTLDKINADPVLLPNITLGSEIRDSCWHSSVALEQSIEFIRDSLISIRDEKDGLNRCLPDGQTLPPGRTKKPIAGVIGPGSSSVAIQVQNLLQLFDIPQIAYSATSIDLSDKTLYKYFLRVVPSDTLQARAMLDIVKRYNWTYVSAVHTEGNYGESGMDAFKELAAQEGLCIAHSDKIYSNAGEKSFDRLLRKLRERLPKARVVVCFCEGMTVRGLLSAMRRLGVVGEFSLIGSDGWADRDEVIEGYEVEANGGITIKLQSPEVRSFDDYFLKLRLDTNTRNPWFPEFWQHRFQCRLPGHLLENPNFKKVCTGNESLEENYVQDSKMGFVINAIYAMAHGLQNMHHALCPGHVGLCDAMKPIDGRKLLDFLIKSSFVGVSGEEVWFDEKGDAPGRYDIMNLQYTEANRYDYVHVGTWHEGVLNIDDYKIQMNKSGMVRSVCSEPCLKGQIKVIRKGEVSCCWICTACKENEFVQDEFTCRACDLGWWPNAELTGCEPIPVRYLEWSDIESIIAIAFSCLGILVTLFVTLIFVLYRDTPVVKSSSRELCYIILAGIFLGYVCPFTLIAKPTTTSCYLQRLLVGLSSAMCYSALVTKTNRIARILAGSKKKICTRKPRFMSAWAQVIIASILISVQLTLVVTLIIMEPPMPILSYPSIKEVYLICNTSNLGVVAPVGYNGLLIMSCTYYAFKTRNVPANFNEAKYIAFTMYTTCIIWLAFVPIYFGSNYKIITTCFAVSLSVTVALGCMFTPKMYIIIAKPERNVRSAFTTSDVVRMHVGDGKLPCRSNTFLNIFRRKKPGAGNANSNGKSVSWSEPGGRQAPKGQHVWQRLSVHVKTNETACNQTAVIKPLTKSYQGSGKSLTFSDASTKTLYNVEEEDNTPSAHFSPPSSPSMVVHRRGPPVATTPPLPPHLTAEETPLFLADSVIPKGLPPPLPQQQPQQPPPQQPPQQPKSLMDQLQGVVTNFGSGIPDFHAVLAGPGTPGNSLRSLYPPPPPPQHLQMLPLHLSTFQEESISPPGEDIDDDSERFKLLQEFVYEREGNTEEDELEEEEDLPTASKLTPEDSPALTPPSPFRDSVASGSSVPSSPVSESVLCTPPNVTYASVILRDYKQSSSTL

“7-(Hydroxyimino)cyclopropa[b]chromen-1a-carboxylate ethyl ester [CPCCOEt]” gave an IC50 [1] of 123 µM.

For N[C@@]1(C(=O)O)CC[C@@H](C(=O)O)C1 [ACPD, (1S,3R)-1-aminocyclopentane-1,3-dicarboxylic acid], the “effect of agonist on viability of granule cells in K5” value (“effect of agonist” for short) [1] was “not significantly increased”, the “maximum effect on granule cell viability” value [1] was 49 ± 5% and the “agonist type for PI hydrolysis compared to glutamate” value (“agonist type … compared to glutamate” for short) [2] was “partial agonists”. For the same compound, the “PI hydrolysis at 100 μM agonist compared to Locke's media only” value [2] was “significant increase”, the “PI hydrolysis Emax, % glu” value [2] was 66 ± 1.4 % glu and the “agonist bias between PI hydrolysis and neuroprotection” value [2] was “completely biased towards PI hydrolysis”.

In the case of N[C@@H](CC(=O)O)C(=O)O [Aspartate, aspartate], the “effect of agonist” value [1] is reported as “prevented”, the EC50 [2] is reported as 19 µM and the “PI hydrolysis Emax, % glu” value [2] is reported as 103 ± 7.8 % glu. For the same compound, the “agonist bias between PI hydrolysis and neuroprotection” value [2] was “balanced agonists”.

With N[C@@H](CS(=O)(=O)O)C(=O)O [Cysteic acid] the “effect of agonist” value [1] was “prevented”, the “PI hydrolysis Emax, % glu” value [2] was 87 ± 4.2 % glu and the EC50 [2, 5] was 22 µM.

In the case of N[C@@H](CS(=O)O)C(=O)O [Cysteine sulfinic acid], the “effect of agonist” value [1] is reported as “prevented”, the “PI hydrolysis Emax, % glu” value [2] is reported as 82 ± 10 % glu and the EC50 [2, 5] is reported as 29 µM.

For NC(C(=O)O)c1cc(O)cc(O)c1 (stereo not drawn) [DHPG, 3,5-dihydroxyphenylglycine], the “ERK phosphorylation or protection” value [3] is given as “do not stimulate”, the “effect of agonist” value [1] is given as “not significantly increased” and the EC50 [2] is given as 23 µM. For the same compound, the “agonist type … compared to glutamate” value [2] was “partial agonists”, the “PI hydrolysis at 100 μM agonist compared to Locke's media only” value [2] was “significant increase” and the “PI hydrolysis Emax, % glu” value [2] was 69 ± 3.7 % glu. The “agonist bias between PI hydrolysis and neuroprotection” value [2] was “completely biased towards PI hydrolysis”.

With N[C@@H](CCC(=O)O)C(=O)O [Glutamate, glutamate] the “effect of agonist” value [1] was “prevented” and the “maximum effect on granule cell viability” value [1] was 65%.

For N[C@@H](CCS(=O)(=O)O)C(=O)O [Homocysteic acid], the “effect of agonist” value [1] was “prevented”, the “PI hydrolysis Emax, % glu” value [2] was 84 ± 7.4 % glu and the EC50 [2, 5] was 29 µM.

In the case of COC1CCC(C(=O)c2ccc3nc4c(cc3c2)CCCO4)CC1 (stereo not drawn) [JNJ16259685], the “effect of antagonist on NMDA-induced increase in granule cell viability” value [1] is reported as “blocked”, the IC50 [1] is reported as 19.8 µM and the “effect of antagonist on PI hydrolysis stimulated by quisqualate, DHPG and ACPD” value [2] is reported as “significantly decreased”.

For C[C@]12N[C@H](Cc3ccccc31)c1ccccc12 [MK801], the “effect of antagonist on NMDA-induced increase in granule cell viability” value [1] was “significantly inhibited”.

For Cc1cccc(C#Cc2ccccc2)n1 [MPEP], the “effect of antagonist on PI hydrolysis stimulated by quisqualate, DHPG and ACPD” value [2] was “no effect”.

With CN[C@H](CC(=O)O)C(=O)O [NMDA, N-methyl-D-aspartate] the “maximum effect on granule cell viability” value [1] was 73%.

In the case of N[C@@H](Cn1oc(=O)[nH]c1=O)C(=O)O [Quisqualate, quisqualate], the “ERK phosphorylation or protection” value [3] is listed as “do not stimulate”, the “effect of agonist” value [1] is listed as “not significantly increased; also recorded: no efficacy” and the “agonist type … compared to glutamate” value [2] is listed as “full agonist”. For the same compound, the “PI hydrolysis at 100 μM agonist compared to Locke's media only” value [2] was “significant increase”, the “PI hydrolysis Emax, % glu” value [2] was 109 ± 7.8 % glu and the “agonist bias between PI hydrolysis and neuroprotection” value [2] was “completely biased towards PI hydrolysis”.

For O=C(O)CCCC(=O)O [glutaric acid], the “protection from serum starvation” value [3] is given as “able to protect” and the “efficacy for PI hydrolysis” value [4] is given as “no efficacy”.

In the case of O=C(O)CCC(=O)O [succinic acid], the “protection from serum starvation” value [3] is listed as “able to protect” and the “efficacy for PI hydrolysis” value [4] is listed as “no efficacy”.
